According to US11779548B2, “Arylfluorosulfate compounds and methods” (THE SCRIPPS RESEARCH INSTITUTE, priority 2014, dated 2023):

Columns and labels:
A549 cells [1] = test: Cancer cell growth inhibition assay; assay type: cell-based; details: Homo sapiens, A549, read-out: IC50 A549 Cells
Procedure: (§1) Experimental compounds were dissolved in DMSO at 500-fold of the desired final maximum test concentration. Then it was 10-fold serially diluted to other concentrations in DMSO. All aliquots were frozen prior to use.
(§2) Another same plate of cells was inoculated for the evaluation of time 0. […] And another plate of cancer cells was refreshed with medium containing either DMSO (0.2%, as control) or test compounds (1 or 1F) in seven different concentrations from 20 μM. After incubation for 72 hours, cell viabilities were evaluated by CellTiter-Glo™ assay to obtain Vcontrol and Vtest. The growth inhibition percentage is defined as (Vtest−V0)/(Vcontrol−V0)×100%. IC50 values were obtained from dose-response curves. All tests included 3 repeats.
(§3) Cancer cells were inoculated into a 96-well plate in 100 μL medium at a plating density of 3,000 cells/well. […] Then cells were incubated for 6 days with one change of medium containing test compounds on day 3, before cell viabilities were evaluated by CellTiter-Glo™ Assay to obtain Vcontrol and Vtest. […]
(§4) Another same plate of cells was inoculated for the evaluation of time 0. […] Then the viabilities of cancer cells for time 0 were evaluated by CellTiter-Glo™ assay to obtain V0. […] Then cells were incubation for 72 hours, before cell viabilities were evaluated by CellTiter-Glo™ assay to obtain Vcontrol and Vtest. […]

MCF-7 cells [2] = test: Cancer cell growth inhibition assay; assay type: cell-based; details: Homo sapiens, MCF7, read-out: IC50 MCF-7 Cells
Procedure: as §1, §2, §3, §4

[3] = tested on: A549, MCF-7, SKBR3 and HT-29 cells; test: Cancer cell growth inhibition assay, comparison over the cell line panel; assay type: cell-based; details: 20 μM and 2 μM, dose-response studies
Procedure: as §1, §2
as §2, with “Then the viabilities of cancer cells for time 0 were evaluated by CellTiter-Glo™ assay to obtain V0. Another” for “And another”, “(25” for “(1”, “25F)” for “1F)”, “7 to 9” for “seven”, “μM (2 μM for MCF-7 cells). Then cells were” for “μM. After”, “hours, before” for “hours,”

HT-29 cells = test: Cancer cell growth inhibition assay; assay type: cell-based
Procedure: as §1, §2
as §2, with “Then the viabilities of cancer cells for time 0 were evaluated by CellTiter-Glo™ assay to obtain V0. Another” for “And another”, “(25” for “(1”, “25F)” for “1F)”, “7 to 9” for “seven”, “μM (2 μM for MCF-7 cells). Then cells were” for “μM. After”, “hours, before” for “hours,”

SKBR3 cells = test: Cancer cell growth inhibition assay; assay type: cell-based; details: Homo sapiens, SK-BR-3, 72 h, read-out: IC50 SKBR3 Cells
Procedure: as §1, §2
as §2, with “Then the viabilities of cancer cells for time 0 were evaluated by CellTiter-Glo™ assay to obtain V0. Another” for “And another”, “(25” for “(1”, “25F)” for “1F)”, “7 to 9” for “seven”, “μM (2 μM for MCF-7 cells). Then cells were” for “μM. After”, “hours, before” for “hours,”

A549 cells [4] = test: Two-dose cell viability assay (CellTiter-Glo); details: A549, 20 μM and 500 nM, 72 h
Procedure: (§5) The cytotoxicity of fluorosulfation products 1F to 39F and their phenol precursors was assessed in cancer cell lines using a double-dose cell viability test. […] The difference between the cytotoxicity of a fluorosulfation product and that of its phenol precursor reflects the changes in compounds' anti-cancer activity after the SuFEx-based derivatization (FIG. 3, A). […] The corresponding phosphate of combretastatin A4 is a tumor vascular targeting agent, and the water-soluble prodrug of combretastatin A4.
(§6) 6C. Two-Dose Cell Viability Assay to Compare the Cytotoxicities of Fluorosulfation Products (1F to 39F) and Phenol Parents (1 to 39).
(§7) MCF-7 and A549 cancer cells were inoculated into 96-well plates in 100 μL medium at a plating density of 5,000 cells/well. After cell inoculation, the plates were incubated at 37° C. and 5% CO2. After 24 hours, all wells were refreshed with medium containing DMSO (0.2%, as vehicle control), phenols (20 μM or 500 nM) or in situ generated fluorosulfation products (20 μM or 500 nM). Then cancer cells were maintained at 37° C. and 5% CO2 for 72 hours before cell viability (Vcontrol, Vphenol and Vfluorosulfation product) were evaluated by CellTiter-Glo™ Assay following manual of protocol. […] The cytotoxicity difference between a fluorosulfation product and its phenol precursor is quantified as (Vphenol/Vcontrol×100%)−(Vfluorosulfation product/Vcontrol×100%).

MCF-7 cells [5] = test: Two-dose cell viability assay (CellTiter-Glo); details: MCF-7, 500 nM, 72 h, in situ generated product
Procedure: as §5, §6, §7

[6] = tested on: microtubule network in HT-29 cells; test: Immunofluorescence microscopy of HT-29 microtubule disruption; assay type: cell-based; details: HT-29, 24 h, anti-tubulin-FITC, confocal imaging; 25F 1 μM and 0.1 μM
Procedure: To assess the mechanism of fluorosulfate 25F, HT-29 cells were treated with 25F followed by staining with anti-tubulin-FITC antibody. […] In fact, glucuronidation of 25 on the phenol group by uridine 5-diphosphoglucuronosyl transferases (UGTs) has been previously identified as a mechanism of resistance evolved by HT-29 colon cancer cells and hepatocellular cancer cells.
After incubation at 37° C. for 24 hours, cells were treated with media containing DMSO (0.2%), 25 (1 μM, 0.1 μM) or 25F (1 μM, 0.1 μM, 0.01 μM) for 24 hours. Then cells were gently washed in PBS, fixed for 20 min with 4% paraformaldehyde in PBS and permeabilised in 0.5% Triton X-100™ surfactant. Following washes in PBS containing 0.1% Tween™ (PBST) surfactant, cells were blocked in 5% bovine serum albumin diluted in PBST. Then cells were incubated with mouse monoclonal anti-tublin-FITC antibody (DM1A) (1:100 in PBS) for 3 hours. After washing with PBST, cells were incubated with DAPI (1:2000) for 30 min and mounted in PBS for confocal analysis. Images were captured by Nikon™ spinning disk confocal microscopy. All images in each experiment were collected on the same day using identical parameters.

For COc1ccc(/C=C\c2cc(OC)c(OC)c(OC)c2)cc1OS(=O)(=O)F [25F, (Z)-2-Methoxy-5-(3,4,5-trimethoxystyryl)phenyl sulfurofluoridate], the IC50 (A549 cells [1]) was 113 nM, the IC50 (MCF-7 cells [2]) was 15.6 nM and the “activity to inhibit cells at high concentrations compared with parent drug 25” value [3] was “stronger activities”. The IC50 (HT-29 cells; Homo sapiens, HT-29, 72 h, read-out: IC50 HT-29 Cells) was 70 nM, the “fold lower IC50 (increase in potency) versus compound 25 on HT-29” value (HT-29 cells; drug resistant colon cancer cell line HT-29) was 70 fold and the IC50 (SKBR3 cells) was 1.8 nM. For the same compound, the “cytotoxicity compared with phenol precursor” value (A549 cells [4]) was “significantly stronger”, the “increase of cytotoxicity relative to phenol precursor” value (MCF-7 cells [5]) was 8% and the “microtubule structure of treated cells” value [6] was “completely lost microtubule structure”.
